# Assays:
# [1] = target: T1, Human immunodeficiency virus type 1 reverse transcriptase (Human immunodeficiency virus 1, UniProt Q72547); assay: Inhibition of HIV1 reverse transcriptase polymerase using deoxynucleotide triphosphates and 18 nucleotide DNA primer annealed to 100 nucleotide DNA template after 30 mins
# [2] = Cytotoxicity against human P4R5 cells after 72 hrs by XTT assay; type: cell-based
# [3] = system: Human immunodeficiency virus 1; assay: Antiviral activity against HIV-1 infected in human P4R5 cells assessed as reduction in viral replication preincubated for 24 hrs followed by viral infection and measured after 48 hrs by MAGI assay; type: functional, organism-based
# [4] = target: Human immunodeficiency virus type 1 integrase (Human immunodeficiency virus 1, UniProt Q7ZJM1); assay: Inhibition of HIV1 integrase strand transfer activity using 5'-biotinylated oligonucleotide as substrate preincubated for 10 mins followed by substrate addition and measured after 30 mins
# Chain of Human immunodeficiency virus type 1 integrase (Q7ZJM1 whole entry): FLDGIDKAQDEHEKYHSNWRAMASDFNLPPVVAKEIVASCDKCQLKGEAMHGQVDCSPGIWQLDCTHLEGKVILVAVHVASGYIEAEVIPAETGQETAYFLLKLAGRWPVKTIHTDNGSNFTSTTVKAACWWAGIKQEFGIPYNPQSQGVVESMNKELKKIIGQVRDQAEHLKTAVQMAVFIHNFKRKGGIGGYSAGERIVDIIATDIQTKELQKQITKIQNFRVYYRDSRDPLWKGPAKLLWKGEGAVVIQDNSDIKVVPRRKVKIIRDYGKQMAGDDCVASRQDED
# [5] = target: T1, Human immunodeficiency virus type 1 reverse transcriptase; assay: Inhibition of HIV1 reverse transcriptase RNase H expressed in Escherichia coli JM109 using RNA/DNA duplex substrate HTS-1
SMILES,IC50 [1] [µM],CC50 [2] [µM],EC50 [3] [µM],IC50 [4] [µM],IC50 [5] [µM]
O=C(c1ccc(-c2ccc(F)cc2)cc1)c1cc(=O)n(O)c(=O)[nH]1,> 10,> 100,9,6.7,0.027
Cc1cc(C)cc(-c2ccc(C(=O)c3cc(=O)n(O)c(=O)[nH]3)cc2)c1,> 10,> 100,> 20,3.5,0.063
COC(=O)c1ccc(-c2ccc(C(=O)c3cc(=O)n(O)c(=O)[nH]3)cc2)cc1,> 10,> 100,> 20,6.7,0.015
O=C(c1cccc(-c2ccccc2)c1)c1cc(=O)n(O)c(=O)[nH]1,> 10,> 100,> 20,7.1,0.017
O=C(c1ccc(-c2ccccc2)cc1)c1cc(=O)n(O)c(=O)[nH]1,> 10,> 100,15,2.5,0.022
Cc1ccc(-c2ccc(C(=O)c3cc(=O)n(O)c(=O)[nH]3)cc2)cc1,> 10,22,4.7,10,0.021
COC(=O)c1ccc(C(=O)c2cc(=O)n(O)c(=O)[nH]2)cc1,> 10,> 100,> 20,13,0.031
CCOCn1c(C(C#N)c2ccc(-c3ccccc3)cc2)cc(=O)n(O)c1=O (stereo not given),> 10,> 100,> 20,> 100,0.76
Cc1cc(C)cc(C(=O)c2cc(=O)n(O)c(=O)[nH]2)c1,> 10,21,9.5,4.9,0.09
O=C(c1ccc(F)cc1)c1cc(=O)n(O)c(=O)[nH]1,> 10,> 100,> 20,4,0.085
CCOCn1c(C(C#N)c2cc(C)cc(C)c2)cc(=O)n(O)c1=O (stereo not given),> 10,> 100,> 20,> 100,3.7
Cc1cc(-c2ccc(C(=O)c3cc(=O)n(O)c(=O)[nH]3)cc2)ccc1F,8.3,> 100,> 20,4.3,0.019
N#Cc1ccc(-c2ccc(C(=O)c3cc(=O)n(O)c(=O)[nH]3)cc2)cc1,7.7,> 100,> 20,0.53,0.024
O=C(c1ccc(C(F)(F)F)cc1)c1cc(=O)n(O)c(=O)[nH]1,> 10,> 100,> 20,2.1,0.081
CCOCn1c(C(=O)c2cccc(-c3ccccc3)c2)cc(=O)n(O)c1=O,> 10,73,12,> 100,1.1
O=C(c1ccc(-c2ccc(Cl)c(F)c2)cc1)c1cc(=O)n(O)c(=O)[nH]1,> 10,> 100,18,0.37,0.023
O=C(c1ccc(-c2ccc(C(F)(F)F)cc2)cc1)c1cc(=O)n(O)c(=O)[nH]1,> 10,17,5.3,> 100,0.026
COc1ccc(-c2ccc(C(=O)c3cc(=O)n(O)c(=O)[nH]3)cc2)cc1,5.9,> 100,> 20,> 100,0.53
COc1ccc(-c2ccc(C(=O)c3cc(=O)n(O)c(=O)[nH]3)cc2)cc1OC,9.6,8.4,6.7,0.33,0.074
CCOCn1c(C(=O)c2ccc(-c3ccccc3)cc2)cc(=O)n(O)c1=O,> 10,> 100,> 20,> 100,0.42
Cc1ccc(C(=O)c2cc(=O)n(O)c(=O)[nH]2)cc1,> 10,48,> 20,7.2,0.093

# Source: ChEMBL document CHEMBL4400534, “Pharmacophore-based design of novel 3-hydroxypyrimidine-2,4-dione subtypes as inhibitors of HIV reverse transcriptase-associated RNase H: Tolerance of a nonflexible linker” (Eur J Med Chem, 2019)
